Legend:
[1] = target: T1, testosterone 5α-reductase (S-9, rat liver homogenate) (Rattus norvegicus, UniProt P24008); test: Testosterone 5α-reductase inhibitory action test; assay type: biochemical; conditions: rat liver S-9, read-out: Testosterone 5 α-reductase inhibition rate; for inhibition at 2000 µM: 2000 μmol/L; for inhibition at 8000 µM: 8000 μmol/L
T1 construct: tissue Oriental Yeast Co., Ltd. S-9; host or cells: rat liver homogenate (S-9 fraction)
T1 sequence (P24008 1-259): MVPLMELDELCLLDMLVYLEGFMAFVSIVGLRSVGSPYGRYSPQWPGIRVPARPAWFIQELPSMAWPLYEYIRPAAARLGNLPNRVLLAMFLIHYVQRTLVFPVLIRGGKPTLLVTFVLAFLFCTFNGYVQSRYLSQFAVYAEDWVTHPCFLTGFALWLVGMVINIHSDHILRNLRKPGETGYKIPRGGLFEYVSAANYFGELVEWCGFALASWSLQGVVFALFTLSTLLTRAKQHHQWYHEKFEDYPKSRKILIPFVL
Experimental: In a V-bottom test tube with a lid, 20 μL of a 4.2 mg/mL testosterone (available from FUJIFILM Wako Pure Chemical Corporation) solution prepared with propylene glycol and 825 μL of 5 mmol/L Tris-HCl (pH 7.13) buffer solution containing 1 mg/mL NADPH were mixed.
Furthermore, 80 μL of each of test sample solutions (Samples 1 to 3, see Table 24 below for final concentrations) prepared with 80% ethanol and 75 μL of S-9 (available from Oriental Yeast Co., Ltd., rat liver homogenate) were added, mixed, and incubated at 37° C. for 60 minutes. After that, 1 mL of methylene chloride was added to stop the reaction. This was centrifuged (1600×g, 10 minutes), the methylene chloride layer was separated, and the separated methylene chloride layer was subjected to gas chromatography analysis under the following conditions to determine the concentrations of 3α-androstanediol, 5α-dihydrotestosterone (5α-DHT), and testosterone. As a control, the same process was performed using the same amount (80 μL) of the sample solvent in place of the test sample solution, and the control was subjected to gas chromatography analysis.
• Device used: Shimadzu GC-2010 (available from Shimadzu Corporation) • Column: DB-1701 (inner diameter: 0.53 mm, length: 30 m, film thickness: 1.0 μm) (available from J&W Scientific) • Column temperature: 240° C. • Inlet temperature: 300° C. • Detector: FID • Sample injection amount: 1 μL • Split ratio: 1:2 • Carrier gas: Nitrogen gas • Carrier gas flow rate: 12 mL/min
Quantitative determination of the concentrations of 3α-androstanediol, 5α-DHT, and testosterone was performed by the following method.
Standard products of 3α-androstanediol, 5α-DHT, and testosterone were each dissolved in ethanol, and the solutions were subjected to gas chromatography analysis. From the concentrations (μg/mL) and peak areas of these compounds, the correspondence relationship between the peak area and the concentration of each compound was preliminarily obtained. Then, the concentration per peak area of each of 3α-androstanediol, 5α-DHT, and testosterone after the reaction between testosterone and S-9 was obtained based on the following equation (1) using the correspondence relationship which was preliminarily obtained.
Terms in the equation represent the following respective ones. • A: Concentration of 3α-androstanediol, 5α-DHT, or testosterone • B: Peak area of 3α-androstanediol, 5α-DHT, or testosterone • C: Concentration of standard product • D: Peak area of standard product
Using the compound concentration calculated based on the equation (1), the conversion ratio (concentration ratio between the concentration of 3α-androstanediol and 5α-DHT produced by reduction of testosterone due to testosterone 5α-reductase and the initial concentration of testosterone) was calculated based on the following equation (2).
Terms in the equation represent the following respective ones. • E: Concentration of 3α-androstanediol (μg/mL) • F: Concentration of 5α-DHT (μg/mL) • G: Concentration of testosterone (μg/mL)
Using the conversion ratio calculated based on the equation (2), the testosterone 5α-reductase inhibition rate (%) was calculated based on the following equation (3).
Terms in the equation represent the following respective ones. • H: Conversion ratio with test sample addition • I: Conversion ratio without sample addition

[2] = target: T2, DPP IV (rhCD26) (Homo sapiens, UniProt P27487); test: DPP IV activity inhibitory action test; assay type: biochemical; conditions: read-out: DPP IV activity inhibition rate; for inhibition at 2500 µM: 2500 μmol/L; for inhibition at 10000 µM: 10000 μmol/L
T2 construct: purchased R&D Systems
T2 sequence (P27487 whole entry): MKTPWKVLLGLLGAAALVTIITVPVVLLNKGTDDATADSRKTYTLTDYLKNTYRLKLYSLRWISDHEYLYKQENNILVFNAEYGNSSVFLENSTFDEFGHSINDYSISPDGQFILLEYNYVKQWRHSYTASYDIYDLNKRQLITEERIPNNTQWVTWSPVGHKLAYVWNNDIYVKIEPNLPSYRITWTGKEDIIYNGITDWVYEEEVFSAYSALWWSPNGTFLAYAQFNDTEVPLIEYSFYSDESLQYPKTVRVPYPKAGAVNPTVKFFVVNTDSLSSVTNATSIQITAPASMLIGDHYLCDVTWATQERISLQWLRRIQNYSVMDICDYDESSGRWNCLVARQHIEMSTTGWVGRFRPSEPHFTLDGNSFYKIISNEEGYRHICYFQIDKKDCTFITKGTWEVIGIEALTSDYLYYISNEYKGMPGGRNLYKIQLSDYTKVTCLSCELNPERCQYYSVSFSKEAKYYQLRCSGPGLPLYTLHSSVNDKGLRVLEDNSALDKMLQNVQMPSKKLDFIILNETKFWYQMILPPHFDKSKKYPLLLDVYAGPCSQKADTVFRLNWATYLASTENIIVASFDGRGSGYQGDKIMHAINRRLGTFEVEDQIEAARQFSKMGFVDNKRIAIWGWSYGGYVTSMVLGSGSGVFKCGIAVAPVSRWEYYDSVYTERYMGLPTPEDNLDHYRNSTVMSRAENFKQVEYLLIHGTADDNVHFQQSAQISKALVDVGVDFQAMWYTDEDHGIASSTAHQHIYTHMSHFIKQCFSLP
Experimental: In a 96-well plate, 25 μL of each of test samples (Samples 1 to 3, see Table 3 below for final concentrations) prepared with 25 mM Tris-HCl buffer solution (pH 8.0) and 25 μL of 0.4 μg/mL DPP IV (available from R&D Systems, rhCD26) solution prepared with the above buffer solution were mixed and preincubated at 37° C. for 5 minutes. After that, 50 μL of 0.5 mM Gly-Pro-p-NA-Tos (available from PEPTIDE […], INC.) prepared with the above buffer solution was added, and the mixture was reacted at 37° C. for 90 minutes. After the reaction was completed, the absorbance at a wavelength of 415 nm was measured. From the obtained results, the DPP IV activity inhibition rate (%) was calculated using the following equation.
Terms in the equation represent the following respective ones. • A: Absorbance at wavelength 415 nm without sample addition and with enzyme addition • B: Absorbance at wavelength 415 nm without sample addition and without enzyme addition • C: Absorbance at wavelength 415 nm with test sample addition and with enzyme addition • D: Absorbance at wavelength 415 nm with test sample addition and without enzyme addition

**Q.** What does the source list for O=C(O)CCc1ccccc1 [Sample 3, 3-phenylpropionic acid]?
**A.** inhibition at 2000 µM [1]: 76.4%; inhibition at 8000 µM [1]: 100%; inhibition at 2500 µM [2]: 4.1%; inhibition at 10000 µM [2]: 99.8%

**Q.** How did the inhibition at 2000 µM [1] turn out when O=C(O)CCc1ccc(O)c(O)c1 [Sample 1, 3,4-Dihydroxyhydrocinnamic acid] was run?
**A.** 34.3%

**Q.** And the inhibition at 8000 µM [1]?
**A.** 100%

**Q.** What about the inhibition at 625 µM ([2]; 625 μmol/L) of the same compound?
**A.** 7.2%

**Q.** What about the inhibition at 2500 µM [2] of the same compound?
**A.** 17.6%

**Q.** What about the inhibition at 10000 µM [2] of the same compound?
**A.** 97.1%

**Q.** How did the inhibition at 2000 µM [1] turn out when O=C(O)CCc1ccc(O)cc1 [Sample 2, 3-(4-Hydroxyphenyl)propionic acid] was run?
**A.** 71%

**Q.** And the inhibition at 8000 µM [1]?
**A.** 100%

**Q.** And the inhibition at 10000 µM [2]?
**A.** 96.9%

— patent US20240252456A1, “ORAL COMPOSITION, SKIN COSMETIC AND HAIR COSMETIC” (MARUZEN PHARMACEUTICALS CO., LTD., priority 2021, published 2024)
